Experimental data: the NIST ThermoML archive (doi:10.1016/j.tca.2010.01.019)
Numbers after ± are expanded uncertainties.

Settings: Crystal, Calculated from knudsen effusion weight loss

CC(C)(C)c1ccc2c(c1)-c1nc-2nc2[n-]c(nc3nc(nc4[n-]c(n1)c1ccc(C(C)(C)C)cc41)-c1ccc(C(C)(C)C)cc1-3)c1ccc(C(C)(C)C)cc21.[Cu+2] [copper tetra-4-tert-butylphthalocyanine]
Settings	vapor or sublimation pressure [kPa]
587 K	4.737e-06 ± 3.3e-06
604 K	1.852e-05 ± 6.8e-06
620 K	5.892e-05 ± 1.7e-05
640 K	0.0001549 ± 4.1e-05
656 K	0.0004 ± 8.6e-05
679 K	0.0008741 ± 0.00019
696 K	0.002084 ± 0.00039
